Experimental data taken from patent US20230174510A1, “N-acetylserotonin Derivatives as TrkB Activators and Uses Thereof” (Emory University, priority 2020, published 2023).
Entries after “also recorded” stand apart in the source; their conditions may differ.

How the values were obtained:
TrkB [1] = target: T1, TrkB (Rattus norvegicus, UniProt Q63604); experiment: TrkB phosphorylation, western blot, primary rat cortical neuronal culture; type: cell-based; design: key: “+”=increased phosphorylation; “−”=decreased phosphorylation; “nc”=no change
T1 construct: in primary cultures of rat cortical neurons; endogenous in cells; host or cells: primary rat cortical neurons
T1 sequence (Q63604 32-821): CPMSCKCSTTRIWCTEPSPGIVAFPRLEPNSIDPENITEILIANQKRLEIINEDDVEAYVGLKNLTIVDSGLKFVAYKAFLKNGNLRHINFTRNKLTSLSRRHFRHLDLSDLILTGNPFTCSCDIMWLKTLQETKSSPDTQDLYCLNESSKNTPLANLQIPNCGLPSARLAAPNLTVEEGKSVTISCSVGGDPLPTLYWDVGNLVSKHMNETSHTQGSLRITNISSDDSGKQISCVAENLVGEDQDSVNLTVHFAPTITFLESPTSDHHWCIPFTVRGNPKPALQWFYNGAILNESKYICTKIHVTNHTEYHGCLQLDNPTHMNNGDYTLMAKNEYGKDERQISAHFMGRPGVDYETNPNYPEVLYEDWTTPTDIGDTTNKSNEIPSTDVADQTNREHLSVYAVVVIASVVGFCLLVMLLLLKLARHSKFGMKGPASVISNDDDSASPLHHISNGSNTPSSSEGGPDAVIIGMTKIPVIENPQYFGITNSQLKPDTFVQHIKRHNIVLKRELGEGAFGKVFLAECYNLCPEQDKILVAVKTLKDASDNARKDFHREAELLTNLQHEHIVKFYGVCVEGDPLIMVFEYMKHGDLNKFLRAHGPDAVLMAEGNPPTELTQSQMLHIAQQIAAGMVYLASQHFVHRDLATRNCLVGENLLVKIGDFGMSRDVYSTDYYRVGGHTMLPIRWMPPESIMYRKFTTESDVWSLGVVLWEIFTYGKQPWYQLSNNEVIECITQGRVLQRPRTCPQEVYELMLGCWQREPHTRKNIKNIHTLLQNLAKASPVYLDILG
Description: (§1) Different concentrations of 2-fluoro-N-(2-(5-hydroxy-1H-indol-3-yl)ethyl)nicotinamide (analogue 147) were tested in NIH-3T3-TrkB cells. Cells at 70-80% confluency were serum deprived overnight and then stimulated with different concentrations of analogue 147 for 30 minutes. Protein extract was collected and subjected for western blot analysis. […] “+”=increased phosphorylation; “−”=decreased phosphorylation; “nc”=no change.
(§2) To screen the analogs for biological activity, the phosphorylation state of TrkB and AKT, a downstream signaling mediator of TrkB activation, was examined in cultured NIH/3T3 cells expressing human TrkB and in primary cultures of rat cortical neurons (see FIG. 5).

AKT [2] = experiment: AKT phosphorylation, western blot, primary rat cortical neuronal culture; type: cell-based; design: key: “+”=increased phosphorylation; “−”=decreased phosphorylation; “nc”=no change
Description: as §1, §2

AKT [3] = experiment: AKT phosphorylation, western blot, NIH 3T3 cells expressing human TrkB; type: cell-based; design: key: “+”=increased phosphorylation; “−”=decreased phosphorylation; “nc”=no change; conditions: NIH 3T3 - TrkB cells
Description: as §1, §2

TrkB [4] = target: T2, TrkB (Homo sapiens, UniProt Q16620); experiment: TrkB phosphorylation, western blot, NIH 3T3 cells expressing human TrkB; type: cell-based; design: expressed in transfected cells; host or cells: NIH/3T3 (NIH-3T3-TrkB) cells; key to pTrkB/β-actin: “+”=increased phosphorylation; “−”=decreased phosphorylation; “nc”=no change; conditions: for pTrkB/β-actin: NIH 3T3 - TrkB cells, western blot; for concentration of best TrkB activation / TrkB activation, concentration dependence: NIH-3T3-TrkB cells, stimulated 30 minutes; for concentration of best TrkB activation: serum deprived overnight
Description: as §1, §2
Target sequence in this assay (Q16620 32-822): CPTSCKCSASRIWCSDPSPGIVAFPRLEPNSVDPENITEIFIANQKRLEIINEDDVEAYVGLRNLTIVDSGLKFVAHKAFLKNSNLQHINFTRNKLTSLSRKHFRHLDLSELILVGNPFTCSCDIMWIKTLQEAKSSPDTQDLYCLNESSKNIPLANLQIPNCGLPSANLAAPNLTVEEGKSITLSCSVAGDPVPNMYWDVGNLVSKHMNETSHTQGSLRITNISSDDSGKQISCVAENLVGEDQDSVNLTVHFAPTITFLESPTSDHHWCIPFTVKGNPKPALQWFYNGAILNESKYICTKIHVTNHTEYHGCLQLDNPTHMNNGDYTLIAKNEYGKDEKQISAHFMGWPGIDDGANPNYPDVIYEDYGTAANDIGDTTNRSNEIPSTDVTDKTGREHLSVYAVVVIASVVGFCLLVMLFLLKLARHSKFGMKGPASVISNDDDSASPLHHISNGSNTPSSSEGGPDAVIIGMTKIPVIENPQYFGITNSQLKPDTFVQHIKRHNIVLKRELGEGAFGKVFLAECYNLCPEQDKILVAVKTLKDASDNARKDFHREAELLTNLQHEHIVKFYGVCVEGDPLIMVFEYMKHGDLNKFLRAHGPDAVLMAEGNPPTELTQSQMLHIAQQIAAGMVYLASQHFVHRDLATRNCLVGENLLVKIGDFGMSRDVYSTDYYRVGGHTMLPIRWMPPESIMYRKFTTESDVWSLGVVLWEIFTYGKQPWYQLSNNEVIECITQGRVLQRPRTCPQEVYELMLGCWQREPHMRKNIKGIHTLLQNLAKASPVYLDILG

[5] = system: blast-induced loss of visual function; experiment: Mouse blast injury (TBI) model, loss of visual function; type: in vivo
Description: Mice were exposed to a single 70 psi blast directed at the right side of the head. HIOC or vehicle was administered 15 minutes after exposure to blast, and daily for the next six days. A sham control group was included for comparison. Visual function was tested 1 week after blast.
(§3) This disclosure contemplates pharmaceutical treatments for trauma-induced vision loss that can be administered on the battlefield or in field hospitals during the critical period before irreversible neuronal degeneration and vision loss occur. A mouse blast injury model has been used to characterize the effects of blast injury to the eye and visual system. Blast injury results in (1) inflammatory responses (microglial activation and reactive gliosis) and activation of the innate and acquired immune system; (2) loss of visual function (contrast sensitivity and visual acuity); (3) thinning of the nerve fiber layer of the retina, and (4) axon loss in the optic nerve. An N-acetylserotonin derivative, N-[2-(5-hydroxy-1H-indol-3-yl)ethyl]-2-oxopiperidine-3-carboxamide (HIOC), effectively mitigates vision loss when administered within several hours after blast exposure (FIG. 1). Daily administration for one week reduces or prevents blast-induced loss of visual function for at least 4 months, mitigating the progressive vision loss that occurs over time in the absence of treatment. This therapeutic effect of HIOC is mediated by activation of TrkB, the cognate receptor for Brain-Derived Neurotrophic Factor (BDNF). Both N-acetylserotonin and HIOC activate TrkB and have neuroprotective properties. The pharmacokinetic characteristics of HIOC are desirable for an in vivo treatment because TrkB is activated for up to 16 hours following a single injection.
The ability of HIOC to mitigate the loss of visual function resulting from blast directed at the head was examined (FIG. 1). Mice were exposed to a single blast of ˜70 psi directed on the right side of the head. Contrast sensitivity was measured 1 week after blast.

TrkB [6] = target: T3, TrkB (Mus musculus, UniProt P15209); experiment: TrkB activation in retina and brain after systemic administration; type: in vivo
T3 construct: from tissue; host or cells: retina (ganglion cells) and brain
T3 sequence (P15209 32-821): as the sequence (Q63604 32-821) above, with M3T, T9S, T10A, I32V, K63R, G84S, T153M, I185L, T394S, N770S counted along it
From the text: as §3, with “The pharmacokinetic characteristics of HIOC are desirable for an in vivo treatment because TrkB is activated for up to 16 hours following a single injection.” left out

[7] = system: kainic acid-induced neuronal cell death; conditions: TrkB-dependent; cited from earlier work
photoreceptor damage = conditions: cited from earlier work
[8] = system: brain damage from subarachnoid hemorrhage; conditions: cited from earlier work
TrkB [9] = target: T2, TrkB; conditions: cited from earlier work
Target sequence in this assay (Q16620 32-822, species assumed): as the sequence (Q16620 32-822) above

Q: Which pTrkB/β-actin (TrkB [1]) does the source give for `O=C(NCCc1c[nH]c2ccc(O)cc12)c1ccccc1` [Analogue 83, N-(2-(5-hydroxy-1H-indol-32-yl)ethyl)benzamide] here?
A: +

Q: And the pAkt/β-actin (AKT [2])?
A: +

Q: What about the pAkt/β-actin (AKT [3]) of the same molecule?
A: +

Q: And the pTrkB/β-actin (TrkB [4])?
A: +

Q: For `O=C(NCCc1c[nH]c2ccc(O)cc12)c1cccnc1` [Analogue 85, N-(2-(5-hydroxy-1H-indol-3-yl)ethyl)nicotinamide], which pTrkB/β-actin (TrkB [1]) is on record?
A: +

Q: And the pAkt/β-actin (AKT [2])?
A: +

Q: And the pAkt/β-actin (AKT [3])?
A: nc

Q: What about the pTrkB/β-actin (TrkB [4]) of the same molecule?
A: nc

Q: With `O=C(NCCc1c[nH]c2ccc(O)cc12)c1ccccn1` [Analogue 105, N-(2-(5-hydroxy-1H-indol-3yl)ethyl)picolinamide] as the molecule, how does the pTrkB/β-actin (TrkB [1]) read?
A: +

Q: And the pAkt/β-actin (AKT [2])?
A: +

Q: And the pAkt/β-actin (AKT [3])?
A: +

Q: And the pTrkB/β-actin (TrkB [4])?
A: −

Q: For `O=C(NCCc1c[nH]c2ccc(O)cc12)c1ccncc1` [Analogue 107, N-(2-(5-hydroxy-1H-indol-3-yl)ethyl)isonicotinamide], which pTrkB/β-actin (TrkB [1]) is on record?
A: +

Q: And the pAkt/β-actin (AKT [2])?
A: +

Q: What about the pAkt/β-actin (AKT [3]) of the same molecule?
A: +

Q: And the pTrkB/β-actin (TrkB [4])?
A: +

Q: Which results are given for `O=C(NCCc1c[nH]c2ccc(O)cc12)c1ccc(F)cn1` [Analogue 112, 5-fluoro-N-(2-(5-hydroxy-1H-indol-3yl)ethyl)picolinamide]?
A: pTrkB/β-actin (TrkB [1]): +; pAkt/β-actin (AKT [2]): −

Q: With `O=C(NCCc1c[nH]c2ccc(O)cc12)c1ccncc1F` [Analogue 114, 3-fluoro-N-(2-(5-hydroxy-1H-indol-3-yl)ethyl)isonicotinamide] as the molecule, how does the pTrkB/β-actin (TrkB [1]) read?
A: nc

Q: What about the pAkt/β-actin (AKT [2]) of the same molecule?
A: nc

Q: What does the source list for `O=C(NCCc1c[nH]c2ccc(O)cc12)c1cncc(F)c1` [Analogue 127, 5-Fluoro-N-(2-(5-hydroxy-1H-indol-3-yl)ethyl)nicotinamide]?
A: pTrkB/β-actin (TrkB [1]): +; pAkt/β-actin (AKT [2]): +; pAkt/β-actin (AKT [3]): −; pTrkB/β-actin (TrkB [4]): +; concentration of best TrkB activation (TrkB [4]): 100 nM; TrkB activation, concentration dependence (TrkB [4]): higher activity at low nanomolar concentrations than at 1 μM

Q: Which pTrkB/β-actin (TrkB [1]) does the source give for `O=C1NCCCC1C(=O)NCCc1c[nH]c2ccccc12` (stereo not shown) [Analogue 145, N-(2-(1H-indol-3-yl)ethyl)-2-oxopiperidine-3-carboxamide] here?
A: +

Q: And the pAkt/β-actin (AKT [2])?
A: +

Q: And the pAkt/β-actin (AKT [3])?
A: +

Q: What about the pTrkB/β-actin (TrkB [4]) of the same molecule?
A: +

Q: Which pTrkB/β-actin (TrkB [1]) does the source give for `O=C(NCCc1c[nH]c2ccc(O)cc12)c1cccnc1F` [Analogue 147, 2-fluoro-N-(2-(5-hydroxy-1H-indol-3yl)ethyl)nicotinamide] here?
A: +

Q: And the pAkt/β-actin (AKT [2])?
A: +

Q: What about the pAkt/β-actin (AKT [3]) of the same molecule?
A: +

Q: What about the pTrkB/β-actin (TrkB [4]) of the same molecule?
A: +

Q: And the “concentration of best TrkB activation” value (TrkB [4])?
A: 10 nM

Q: What about the “TrkB activation, concentration dependence” value (TrkB [4]) of the same molecule?
A: higher activity at low nanomolar concentrations than at 1 μM

Q: With `COc1ccc2[nH]cc(CCNC(=O)C3CCCNC3=O)c2c1` (stereo not shown) [Analogue 149, N-(2-(5-methoxy-1H-indol-3-yl)ethyl)-2-oxopiperidine-3-carboxamide] as the molecule, how does the pTrkB/β-actin (TrkB [1]) read?
A: +

Q: What about the pAkt/β-actin (AKT [2]) of the same molecule?
A: +

Q: What about the pAkt/β-actin (AKT [3]) of the same molecule?
A: +

Q: What about the pTrkB/β-actin (TrkB [4]) of the same molecule?
A: −

Q: What does the source list for `CN1CCCC(C(=O)NCCc2c[nH]c3ccc(O)cc23)C1=O` (stereo not shown) [Analogue 151, N-(2-(5-hydroxy-1H-indol-3-yl)ethyl)-1-methyl-2-oxopiperidine-3-carboxamide]?
A: pTrkB/β-actin (TrkB [1]): +; pAkt/β-actin (AKT [2]): −

Q: Which pTrkB/β-actin (TrkB [1]) does the source give for `CC1(C(=O)NCCc2c[nH]c3ccc(O)cc23)CCCNC1=O` (stereo not shown) [Analogue 170, N-(2-(5-hydroxy-1H-indol-3-yl)ethyl)-3-methyl-2-oxopiperidine-3-carboxamide] here?
A: +

Q: And the pAkt/β-actin (AKT [2])?
A: nc

Q: And the pAkt/β-actin (AKT [3])?
A: +

Q: What about the pTrkB/β-actin (TrkB [4]) of the same molecule?
A: +

Q: Which pTrkB/β-actin (TrkB [1]) does the source give for `O=C1NCCCC1C(=O)NCCc1c[nH]c2ccc(O)cc12` (stereo not shown) [HIOC, N-[2-(5-hydroxy-1H-indol-3-yl)ethyl]-2-oxopiperidine-3-carboxamide] here?
A: +

Q: And the pAkt/β-actin (AKT [2])?
A: +

Q: And the pAkt/β-actin (AKT [3])?
A: +

Q: What about the “effects on blast-induced retinal and optic nerve damage” value ([5]; blast exposure) of the same molecule?
A: reduces vision loss, microglial activation in the retina, nerve fiber layer thinning, and the optic nerve axon loss

Q: And the “duration of protection from blast-induced loss of visual function” value ([5]; daily administration for one week)?
A: at least 4 months

Q: And the “TBI induced decrease in contrast sensitivity” value ([5]; mice, single ~70 psi blast, 80 mg/kg, measured 1 week after blast)?
A: completely prevented

Q: What about the “duration of TrkB activation” value (TrkB [6]; following a single injection) of the same molecule?
A: up to 16 hours

Q: And the “blood-retinal and blood-brain barrier penetration” value (TrkB [6]; systemic administration)?
A: crosses the blood-retinal and blood-brain barriers

Q: And the “kainic acid-induced neuronal cell death / apoptosis” value [7]?
A: inhibits neuronal apoptosis; also recorded: reduces kainic acid-induced neuronal cell death

Q: What about the “photoreceptor damage from toxic light exposure” value (photoreceptor damage) of the same molecule?
A: reduces photoreceptor damage

Q: What about the “brain damage from subarachnoid hemorrhage” value [8] of the same molecule?
A: attenuates brain damage

Q: What about the TrkB activation (TrkB [9]) of the same molecule?
A: activate TrkB; also recorded: selectively activates TrkB

Q: And the pTrkB/β-actin (TrkB [4])?
A: +

Q: With `CC(=O)NCCc1c[nH]c2ccc(O)cc12` [N-acetylserotonin] as the molecule, how does the TrkB activation (TrkB [9]) read?
A: activate TrkB

B1: BDNF: Brain-Derived Neurotrophic Factor; TrkB is its cognate receptor (protein, UniProt P23560 19-247, looked up)
Neurotrophic factor BDNF …: APMKEANIRGQGGLAYPGVRTHGTLESVNGPKAGSRGLTSLADTFEHVIEELLDEDQKVRPNEENNKDADLYTSRVMLSSQVPLEPPLLFLLEEYKNYLDAANMSMRVRRHSDPARRGELSVCDSISEWVTAADKKTAVDMSGGTVTVLEKVPVSKGQLKQYFYETKCNPMGYTKEGCRGIDKRHWNSQCRTTQSYVRALTMDSKKRIGWRFIRIDTSCVCTLTIKRGR
Q: Which pTrkB/β-actin (TrkB [1]) does the source give for B1 here?
A: +

Q: And the pAkt/β-actin (AKT [2])?
A: +

Q: What about the pAkt/β-actin (AKT [3]) of the same molecule?
A: +

Q: And the pTrkB/β-actin (TrkB [4])?
A: +
